# Assay results from ChEMBL document CHEMBL1201862, “PubChem BioAssay data set” (2004).
#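 The compound was tested at five concentrations on cells cultured in 96-well plates, with a 48-hour exposure period. GI50 = concentration required for 50% inhibition of growth.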 Active and inactive are the calls of the source. Cut-off read from the data, not from the text of the source: active = GI50 up to about 1.1 µM and inactive = higher.
# Columns and labels:
# Test in all cases: NCI anticancer screen, dose series, 48 h
# SF-539 = tested on: SF-539
# OVCAR-3 = tested on: OVCAR-3
# A549 = tested on: A549
# NCI-H522 = tested on: NCI-H522
# UACC-257 = tested on: UACC-257
# NCI-H226 = tested on: NCI-H226
# NCI-H23 = tested on: NCI-H23
# OVCAR-4 = tested on: OVCAR-4
# PC-3 = tested on: PC-3
# SNB-75 = tested on: SNB-75
# UO-31 = tested on: UO-31
# SK-MEL-28 = tested on: SK-MEL-28
# BT-549 = tested on: BT-549
# MDA-MB-435 = tested on: MDA-MB-435
# UACC-62 = tested on: UACC-62
# HOP-92 = tested on: HOP-92
# TK-10 = tested on: TK-10
# ACHN = tested on: ACHN
# CAKI-1 = tested on: CAKI-1
# HL-60 = tested on: HL-60
# SN12C = tested on: SN12C
# NCI-H460 = tested on: NCI-H460
# EKVX = tested on: EKVX
# T47D = tested on: T47D
# RPMI-8226 = tested on: RPMI-8226
# KM12 = tested on: KM12
# HT-29 = tested on: HT-29
# SK-MEL-5 = tested on: SK-MEL-5
# 786-0 = tested on: 786-0
# OVCAR-5 = tested on: OVCAR-5
# HCT-15 = tested on: HCT-15
# HCC 2998 = tested on: HCC 2998
# MCF7 = tested on: MCF7
# COLO 205 = tested on: COLO 205
# MDA-MB-231 = tested on: MDA-MB-231
# IGROV-1 = tested on: IGROV-1
# NCI/ADR-RES = tested on: NCI/ADR-RES
# OVCAR-8 = tested on: OVCAR-8
# U-251 = tested on: U-251
# CCRF-CEM = tested on: CCRF-CEM
# SNB-19 = tested on: SNB-19
# HCT-116 = tested on: HCT-116
# M14 = tested on: M14
# SW-620 = tested on: SW-620
# RXF 393 = tested on: RXF 393
# Malme-3M = tested on: Malme-3M
# HOP-62 = tested on: HOP-62
# K562 = tested on: K562
# MDA-N = tested on: MDA-N
# SF-268 = tested on: SF-268
# SR = tested on: SR
# LOX IMVI = tested on: LOX IMVI
# SK-OV-3 = tested on: SK-OV-3
# SF-295 = tested on: SF-295
# DU-145 = tested on: DU-145
# SK-MEL-2 = tested on: SK-MEL-2
# MOLT-4 = tested on: MOLT-4
# Hs-578T = tested on: Hs-578T
# A498 = tested on: A498
smiles,measurement,setting,value
COC(=O)[C@]1(c2cc3ccccc3n2S(=O)(=O)c2ccccc2)CC2CCC1NC2 (some centres undefined),GI50,SF-539,16400 nM (inactive)
same,GI50,OVCAR-3,17 µM (inactive)
same,GI50,A549,12600 nM (inactive)
same,GI50,NCI-H522,14300 nM (inactive)
same,GI50,UACC-257,15.8 µM (inactive)
same,GI50,NCI-H226,14.6 µM (inactive)
same,GI50,NCI-H23,15200 nM (inactive)
same,GI50,OVCAR-4,16.4 µM (inactive)
same,GI50,PC-3,12100 nM (inactive)
same,GI50,SNB-75,12700 nM (inactive)
same,GI50,UO-31,10500 nM (inactive)
same,GI50,SK-MEL-28,16.8 µM (inactive)
same,GI50,BT-549,14.5 µM (inactive)
same,GI50,MDA-MB-435,14.2 µM (inactive)
same,GI50,UACC-62,14500 nM (inactive)
same,GI50,HOP-92,9.25 µM (inactive)
same,GI50,TK-10,31.8 µM (inactive)
same,GI50,ACHN,21700 nM (inactive)
same,GI50,CAKI-1,15500 nM (inactive)
same,GI50,HL-60,2850 nM (inactive)
same,GI50,SN12C,15700 nM (inactive)
same,GI50,NCI-H460,14000 nM (inactive)
same,GI50,EKVX,14.2 µM (inactive)
same,GI50,T47D,12.2 µM (inactive)
same,GI50,RPMI-8226,6.65 µM (inactive)
same,GI50,KM12,15.1 µM (inactive)
same,GI50,HT-29,12400 nM (inactive)
same,GI50,SK-MEL-5,13000 nM (inactive)
same,GI50,786-0,14300 nM (inactive)
same,GI50,OVCAR-5,16.1 µM (inactive)
same,GI50,HCT-15,15600 nM
same,GI50,HCC 2998,9.38 µM (inactive)
same,GI50,MCF7,13200 nM (inactive)
same,GI50,COLO 205,14.4 µM (inactive)
same,GI50,MDA-MB-231,14.1 µM (inactive)
same,GI50,IGROV-1,14 µM (inactive)
same,GI50,NCI/ADR-RES,16.6 µM (inactive)
same,GI50,OVCAR-8,14900 nM (inactive)
same,GI50,U-251,13.6 µM (inactive)
same,GI50,CCRF-CEM,16100 nM (inactive)
same,GI50,SNB-19,14800 nM (inactive)
same,GI50,HCT-116,13700 nM (inactive)
same,GI50,M14,14200 nM (inactive)
same,GI50,SW-620,14500 nM (inactive)
same,GI50,RXF 393,12.2 µM (inactive)
same,GI50,Malme-3M,14.9 µM (inactive)
same,GI50,HOP-62,18000 nM (inactive)
same,GI50,K562,10400 nM (inactive)
same,GI50,MDA-N,14700 nM (inactive)
same,GI50,SF-268,16.8 µM (inactive)
same,GI50,SR,< 10 nM (active)
same,GI50,LOX IMVI,15600 nM (inactive)
same,GI50,SK-OV-3,16.7 µM (inactive)
same,GI50,SF-295,16900 nM (inactive)
same,GI50,DU-145,16100 nM (inactive)
same,GI50,SK-MEL-2,16.7 µM (inactive)
CN(C)CCN(C)c1ccc2c(=O)n(CCN(C)C)c(=O)n3c4ccccc4c(=O)c1c23,GI50,SF-539,324 nM (active)
same,GI50,OVCAR-3,1.89 µM (inactive)
same,GI50,A549,35.3 nM (active)
same,GI50,NCI-H522,259 nM (active)
same,GI50,UACC-257,1.56 µM (inactive)
same,GI50,NCI-H226,0.29 µM (active)
same,GI50,NCI-H23,540 nM (active)
same,GI50,OVCAR-4,0.364 µM (active)
same,GI50,PC-3,973 nM (active)
same,GI50,SNB-75,316 nM (active)
same,GI50,UO-31,516 nM (active)
same,GI50,SK-MEL-28,2.12 µM (inactive)
same,GI50,BT-549,3.3 µM (inactive)
same,GI50,MDA-MB-435,1.26 µM (inactive)
same,GI50,UACC-62,993 nM (active)
same,GI50,HOP-92,0.145 µM (active)
same,GI50,TK-10,1.51 µM (inactive)
same,GI50,ACHN,43.6 nM (active)
same,GI50,CAKI-1,< 26 nM (active)
same,GI50,HL-60,62.7 nM (active)
same,GI50,MOLT-4,16.7 nM (active)
same,GI50,SN12C,96.4 nM (active)
same,GI50,NCI-H460,29 nM (active)
same,GI50,EKVX,1.66 µM (inactive)
same,GI50,T47D,1.09 µM (active)
same,GI50,RPMI-8226,0.179 µM (active)
same,GI50,KM12,1.26 µM (inactive)
same,GI50,HT-29,397 nM (active)
same,GI50,SK-MEL-5,480 nM (active)
same,GI50,786-0,108 nM (active)
same,GI50,OVCAR-5,1.87 µM (inactive)
same,GI50,HCT-15,179 nM
same,GI50,HCC 2998,0.454 µM (active)
same,GI50,MCF7,345 nM (active)
same,GI50,COLO 205,0.647 µM (active)
same,GI50,IGROV-1,0.426 µM (active)
same,GI50,NCI/ADR-RES,2.29 µM (inactive)
same,GI50,OVCAR-8,582 nM (active)
same,GI50,U-251,0.489 µM (active)
same,GI50,Hs-578T,2.12 µM (inactive)
same,GI50,CCRF-CEM,< 25.8 nM (active)
same,GI50,SNB-19,518 nM (active)
same,GI50,HCT-116,194 nM (active)
same,GI50,M14,986 nM (active)
same,GI50,SW-620,119 nM (active)
same,GI50,RXF 393,2.81 µM (inactive)
same,GI50,Malme-3M,1.23 µM (inactive)
same,GI50,HOP-62,89.7 nM (active)
same,GI50,K562,140 nM (active)
same,GI50,MDA-N,859 nM (active)
same,GI50,SR,< 10 nM (active)
same,GI50,LOX IMVI,350 nM (active)
same,GI50,SK-OV-3,1.55 µM (inactive)
same,GI50,SF-295,340 nM (active)
same,GI50,DU-145,128 nM (active)
same,GI50,SK-MEL-2,2.87 µM (inactive)
same,GI50,A498,0.471 µM (active)
CCC(Cc1cnc2nc(N)nc(N)c2n1)c1ccc(C(=O)NC(CCC(=O)O)C(=O)O)cc1 (centres undefined),GI50,SF-539,10 nM (active)
same,GI50,A549,0.507 nM (active)
same,GI50,NCI-H522,10 nM (active)
same,GI50,UACC-257,0.103 µM (active)
same,GI50,NCI-H23,0.621 nM (active)
same,GI50,PC-3,< 0.1 nM (active)
same,GI50,SNB-75,329 nM (active)
same,GI50,UO-31,0.382 nM (active)
same,GI50,BT-549,> 100 µM (inactive)
same,GI50,MDA-MB-435,0.000736 µM (active)
same,GI50,UACC-62,0.396 nM (active)
same,GI50,TK-10,> 100 µM (inactive)
same,GI50,ACHN,0.456 nM (active)
same,GI50,CAKI-1,10 nM (active)
same,GI50,HL-60,< 0.1 nM (active)
same,GI50,MOLT-4,0.264 nM (active)
same,GI50,SN12C,0.551 nM (active)
same,GI50,NCI-H460,0.315 nM (active)
same,GI50,EKVX,0.000249 µM (active)
same,GI50,T47D,1.78 µM (inactive)
same,GI50,KM12,0.00069 µM (active)
same,GI50,HT-29,0.327 nM (active)
same,GI50,SK-MEL-5,5.39 nM (active)
same,GI50,786-0,0.146 nM (active)
same,GI50,OVCAR-5,0.01 µM (active)
same,GI50,HCT-15,0.632 nM
same,GI50,MCF7,62.8 nM (active)
same,GI50,COLO 205,3.24 µM (inactive)
same,GI50,NCI/ADR-RES,0.000711 µM (active)
same,GI50,OVCAR-8,0.624 nM (active)
same,GI50,Hs-578T,10.7 µM (inactive)
same,GI50,CCRF-CEM,< 0.1 nM (active)
same,GI50,SNB-19,4.19 nM (active)
same,GI50,HCT-116,< 0.1 nM (active)
same,GI50,M14,0.899 nM (active)
same,GI50,SW-620,0.176 nM (active)
same,GI50,Malme-3M,0.0127 µM (active)
same,GI50,HOP-62,5.15 nM (active)
same,GI50,K562,< 0.1 nM (active)
same,GI50,MDA-N,0.575 nM (active)
same,GI50,SF-268,0.00075 µM (active)
same,GI50,SR,10 nM (active)
same,GI50,LOX IMVI,0.247 nM (active)
same,GI50,SF-295,10 nM (active)
same,GI50,DU-145,0.548 nM (active)
same,GI50,A498,> 100 µM (inactive)
